Experiments:
Hepa1-6 tumors = experiment: Intratumoral mRNA (RT-qPCR, RT-qPCR array) and protein (ELISA) expression in Hepa1-6 tumors; assay type: in vivo, C57L mice
Procedure: By contrast, the expression of mRNAs encoding the chemokine CXCL1 and interleukins IL-6 and IL-10, which recruit/activate TAMs and/or MDSCs (Supplemental Table 4), was inhibited by 32-134D treatment (P < 0.05; Figure 6D).
Figure 6 Effect of 32-134D on intratumoral gene expression. (A–D) C57L mice were injected with Hepa1-6 HCC cells subcutaneously and when tumors reached a volume of 200 mm^3, the mice were treated with vehicle (blue bars) or 32-134D (40 mg/kg; red bars) by daily intraperitoneal injection for 8 days. The tumors were harvested and mRNA was quantified by RT-qPCR and normalized to blue (mean ± SEM, n = 4). *P < 0.05 versus blue (ANOVA with Bonferroni’s post hoc test). (E) Effect of 32-134D on intratumoral expression of cytokines and chemokines. Total RNA isolated from tumors of 32-134D–treated versus vehicle-treated mice (n = 3 each) was analyzed using an RT-qPCR array and the ratio of mean expression (32-134D/vehicle) was determined. mRNAs with a significant difference between groups (P < 0.05, Student’s t test) are annotated.
Figure 7 Effect of 32-134D on intratumoral expression of immunoregulatory proteins. (A–H) Lysates prepared from tumors of 32-134D–treated versus vehicle-treated mice were subjected to ELISA for secreted proteins mediating antitumor immunity (CXCL2, CXCL9, CXCL10) or immunosuppression (CXCL1, IL-6, IL-10, VEGFA). The data are presented as mean ± SEM (n = 4 each). *P < 0.05 (Mann-Whitney test).
Tumors were homogenized in ice-cold PBS supplemented with 1% Triton X-100 and PIs, centrifuged at 10,000g for 20 minutes to pellet debris, and the supernatant was collected for ELISA using commercial kits (Supplemental Table 6). Optical density was obtained at 450 nm (corrected for readings at 570 nm) using the VICTOR Nivo plate reader. Sample protein concentration was calculated by linear regression from a standard curve.
Total RNA from Hepa1-6 tumors was analyzed using the RT^2 Profiler PCR Array of Mouse Cytokines and Chemokines (Supplemental Table 6) according to the manufacturer’s instructions.

[1] = Hematologic indices, serum EPO and organ histology in mice; assay type: in vivo, C57BL/6J mice; details: 14 days
Procedure: To investigate the effect of 32-134D on erythropoiesis, C57BL/6J mice (n = 4 per group) received a daily intraperitoneal injection of vehicle or 32-134D at a dose of 40 or 80 mg/kg/day for 14 days.
Figure 8 Effect of 32-134D on red blood cell indices. Mice (n = 4 per group) were treated with vehicle (V) or 32-134D (40 mg/kg/day) for 14 days and peripheral blood was analyzed for red blood cell count (RBC), hemoglobin (Hgb), hematocrit (Hct), reticulocytes, mean corpuscular hemoglobin (MCH), mean corpuscular hemoglobin concentration (MCHC), mean corpuscular volume (MCV), and absolute reticulocyte count (A) or EPO levels in serum (B).
To analyze blood parameters, male C57BL/6J mice were treated with vehicle or 32-134D by daily intraperitoneal injection for 14 days. Blood was collected by cardiac puncture into EDTA-coated tubes for analysis of hematologic indices at the Johns Hopkins Mouse Phenotyping Core. Blood collected into noncoated tubes was allowed to clot for 2 hours at room temperature, centrifuged at 2000g for 20 minutes, and serum samples were subjected to EPO ELISA according to the manufacturer’s instructions (Supplemental Table 6). Organs including heart, liver, kidney, small intestine, colon, lungs, and brain were harvested, fixed in formalin for 24 hours, and embedded in paraffin for histopathological investigation. Hematoxylin and eosin staining was performed by the Johns Hopkins Reference Histology Services.
Supplemental Figure 9. Normal organ histology in mice treated with 32-134D. Mice were administered vehicle or 32-134D (40 or 80 mg/kg) by daily intraperitoneal injection for 14 days and tissue sections from the indicated organs were stained with hematoxylin and eosin. Scale bar = 20 µm.
(1 picture or pasted object on this page, not shown here)

[2] = Mouse pharmacokinetics (plasma, LC-MS/MS); assay type: in vivo, C57BL/6J mice; details: male, C57BL/6J, ip, single intraperitoneal injection of 40 mg/kg
Procedure: We employed liquid chromatography and tandem mass spectrometry (LC-MS/MS) to quantify the plasma concentration of 32-134D over 24 hours following a single intraperitoneal injection of 40 mg/kg (Figure 9). The maximum plasma concentration (Cmax) of 20 μM occurred at 4 hours with a biexponential decline. […] Further studies are required to determine whether steady-state levels are achieved with daily administration.
Figure 9 Concentration-time profiles of 32-134D in mice (n = 3 per time point) treated with a single dose of 32-134D. Plasma was obtained over 24 hours, with 32-134D concentrations determined by LC-MS/MS. […] Data points and error bars represent mean and SD of 3 replicates, respectively.
Male C57BL/6J mice were administered 32-134D at 40 mg/kg as a single intraperitoneal injection. Mice (n = 3 per time point) were euthanized at 0.5, 1, 2, 4, 8, 16, and 24 hours after injection. Compound 32-134D was quantified in plasma by LC-MS/MS (see Supplemental Methods). Pharmacokinetic parameters were calculated from mean concentration-time data using noncompartmental methods in Phoenix WinNonlin version 8.3 (Certara). The Cmax and time to Cmax (tmax) were the observed values. The AUClast was calculated using the log-linear trapezoidal method. AUC was extrapolated to infinity (AUCINF) by dividing the last quantifiable concentration by the terminal disposition rate constant (λz). The λz was determined from at least 3 points on the slope of the terminal phase of the concentration-time profile. The t1/2 was determined by dividing 0.693 by λz. Cl/F was calculated by dividing the dose administered by AUCINF. V/F was calculated by dividing Cl/F by λz. If the percentage AUC extrapolated was greater than 20% or the r^2 of λz was less than 0.85, the AUCINF, Cl/F, t1/2, and V/F were not reported.

[3] = RT-qPCR array of 84 mRNAs, P < 0.05
[4] = RT-qPCR, 40 mg/kg, 8 days, P < 0.05

- histology of brain, colon, heart, kidney, liver, lungs, and small intestine ([1]; 40 or 80 mg/kg ip): no changes
- red blood cell count, hemoglobin, hematocrit, reticulocyte count, MCV, MCH, MCHC versus vehicle ([1]; 40 or 80 mg/kg/day ip): not significantly different
- serum EPO levels versus vehicle ([1]; ELISA): no significant difference
- CL/F ([2]; read-out: apparent clearance (Cl/F)): 14.5 mL/min/kg
- Vd/F ([2]; read-out: apparent volume of distribution (V/F)): 6.1 L/kg
- AUC(0-inf) ([2]; read-out: area under the curve extrapolated to infinity (AUCINF)): 96.7 µM·h
- Cmax ([2]; read-out: maximum plasma concentration (Cmax)): 20 µM
- half-life ([2]; read-out: terminal half-life (t1/2) (converted)): 4.1 h
Compound: Brc1ccc2c(-c3csc(-c4c[nH]c5c(Br)cccc45)n3)c[nH]c2c1 [Compound 32-134D]
- CXCL1, IL-6, IL-10, and VEGFA protein in tumor lysates (Hepa1-6 tumors; ELISA): decreased levels
- CXCL2, CXCL9, and CXCL10 protein in tumor lysates (Hepa1-6 tumors; ELISA, P < 0.05): significantly increased levels
- number of cytokine/chemokine mRNAs with decreased expression (Hepa1-6 tumors; [3]): 40 mRNAs
- number of cytokine/chemokine mRNAs with increased expression (Hepa1-6 tumors; [3]): 5 mRNAs
- tumor expression of CXCL1, IL-6 and IL-10 mRNA (Hepa1-6 tumors; [4]): inhibited
- tumor expression of CXCL9, CXCL10, and IFN-γ mRNA (Hepa1-6 tumors; [4]): increased
- tumor mRNAs encoding angiogenic factors (ANGPTL4, EPO, PGF, VEGFA) and immunosuppression proteins (B7H4, CD47, CD73, PDL1, SLC2A1, HAVCR2, CD70, LDHA, ENTPD1, CA9) (Hepa1-6 tumors; [4]): significantly decreased

— PMC9057582, “HIF inhibitor 32-134D eradicates murine hepatocellular carcinoma in combination with anti-PD1 therapy” (The Journal of Clinical Investigation, 2022)
